Experimental data taken from US20160008366A1, “BTK INHIBITORS FOR THE TREATMENT OF CNS MALIGNANCIES” (Pharmacyclics LLC, priority 2014, published 2016).
Marks after values point to notes of the source that are not given here.

Legend:
[1] = Quantification of PCI-32765 (ibrutinib) and its metabolite PCI-45227 in human cerebrospinal fluid samples of patient 01-001BF (LC-MS/MS); type: in vivo; settings: for observed in CSF samples: patient 01-001BF after 560 mg of ibrutinib daily; for Calculated Concentration in CSF: patient 01-001BF, ibrutinib 560 mg daily
Experimental: Samples were obtained from patient (01-001BF), a person with Waldenstrom's macroglobulinemia with amyloid and Bing-Neel syndrome.
Standards and QC sample preparation and data analysis were carried out using the methods described in Example 1. In brief, all samples and standards were prepared on ice. Internal standard (IS) was prepared by addition of d5-PCI-32765 and d5-PCI-45227 in 0.2% formic acid in 1:9 (v/v) water: ACN (acetonitrile).
A100 μL of either a sample or a standard was transferred into each well of a 96-well plate. To each well was added 20 μL of the internal standard solution. […] Next, the 96-well plate was capped and vortexed thoroughly and then centrifuged at 4000 rpm for at least 10 minutes at 4° C.
High performance liquid chromatography (HPLC) (Shimadzu Nexera X2 HPLC system) was coupled with an electrospray ionization triple quadrupole mass spectrometer (AB SCIEX API-6500), and an autosampler (CTC PAL Eksigent). Chromatographic separation was achieved using an XBridge™ Ethylene-Bridged Hybrid (BEH) C18 column, 3.5 μm (2.1×50 mm) (Waters), and a C 18 guard column (2×4 mm) (Phenomenex Security Guard). Mobile phase A was 0.1% formic acid in water and mobile phase B was 100% acetonitrile. In all conditions, the column temperature was at ambient, the autosampler temperature was at 4° C., and the injection volume was 10 μL. The diversion time from HPLC to MS was from 0.5 minutes to 2.5 minutes.
The mass spectrometer (MS) equipped with an ESI source, was operated at a source temperature of 700° C.

[2] = CSF and plasma concentration ratios for ibrutinib and PCI-45227, patient 01-001BF; type: in vivo, human; settings: ibrutinib 560 mg daily; for Kp: human, CSF/plasma, 560 mg daily
[3] = Adsorption test in human CSF to Nunc CryoTube vials; type: physicochemical; settings: incubated for 1 h on ice, Low and High QC
Description: These QC samples were kept in Nunc CryoTube vials for one hour. After an hour, each sample was vortex mixed and assayed against freshly prepared calibration standards. The obtained concentrations of the adsorption test QC samples were compared to the nominal values. The samples were considered to have no adsorption to the Nunc CryoTube vials if the mean value of the obtained concentrations was within 20% of the nominal concentration.

[4] = Short-term storage stability in human CSF at −70±5° C.; type: in vitro ADME; settings: −70±5° C. for at least 7 days, n=6
[5] = cited from earlier work
[6] = QC samples bench-top (ice) stability in human CSF; type: in vitro ADME; settings: nominal 0.500 ng/mL, on ice for 2 hours, n=6
[7] = QC samples freeze (−70° C.)/thaw (on ice) stability in human CSF; type: in vitro ADME; settings: nominal 0.500 ng/mL, 3 freeze/thaw cycles, n=6
Experimental: QC samples stored at −70° C., which were subjected to 3 freeze/thaw (ice) cycles, were measured against freshly prepared calibration standards.

[8] = Day 1, pre-dose (0 h), BQL = below quantification limit (0.3 ng/mL)

Row | observed in CSF samples [1] | Calculated Concentration in CSF ([1]; 1 Month, 3 h) | Calculated Concentration in CSF ([1]; Day 1, 2 h) | Calculated Concentration in CSF [1, 8] | Calculated Concentration in CSF ([1]; Day 1, pre-dose (0 h), BQL = below quantification limit (0.3 ng/mL), listed as Ibrutinib) | Kp ([2]; 1 Month, 3 h) | Kp ([2]; Day 1, 2 h) | adsorption to Nunc Cryo Tube vials [3] | Intra-run QC Low, % Accuracy ([4]; nominal 0.500 ng/mL) | Intra-run QC Low, Mean ([4]; nominal 0.500 ng/mL) | Intra-run QC Mid, % Accuracy ([4]; nominal 5.00 ng/mL) | Intra-run QC Mid, Mean ([4]; nominal 5.00 ng/mL) | Bench-top QC Low Concentration, Mean [6] | Bench-top QC Low, % Accuracy [6] | % CSF/Plasma ([2]; 1 Month, 3 h) | % CSF/Plasma ([2]; Day 1, 2 h) | F/T3 (−70° C.) Low QC, % Accuracy [7] | F/T3 (−70° C.) Low QC, Mean [7] | Structure (SMILES) | reported percentage of unbound of the compounds in plasma [5]
1 | observed | 7.19 ng/mL | 15.0 ng/mL | BQL | BQL^a | 0.035 | 0.03 | no adsorption |  |  |  |  |  |  |  |  |  |  | C=CC(=O)N1CCC[C@@H](n2nc(-c3ccc(Oc4ccccc4)cc3)c3c(N)ncnc32)C1 [PCI-32765, (R)-1-(3-(4-amino-3-(4-phenoxyphenyl)-1H-pyrazolo[3,4-d]pyrimidin-1-yl)piperidin-1-yl)prop-2-en-1-one] | 
2 | observed | 15.4 ng/mL | 14.7 ng/mL | BQL and BQL^a |  |  |  | no adsorption | 99.4% | 0.497 ng/mL | 87.8% | 4.39 ng/mL | 0.458 ng/mL | 91.5% | 8.5% | 6.2% | 97.2% | 0.486 ng/mL | Nc1ncnc2c1c(-c1ccc(Oc3ccccc3)cc1)nn2[C@@H]1CCCN(C(=O)C(O)CO)C1 (stereo partly drawn) [PCI-45227] | 9%
